Experimental findings from PMC2934701 (The Journal of Biological Chemistry, 2010) are described below.

Common to all, as to test: Fluo-4 calcium assay, HEK293T + Galpha16gust44
Common to all, as to type: cell-based

The target in experiment [1] is T1, hTAS2R16 (ssr3-hTAS2R16) (Homo sapiens, UniProt Q9NYV7, F240L).
T1 sequence (Q9NYV7 1-291 F240L): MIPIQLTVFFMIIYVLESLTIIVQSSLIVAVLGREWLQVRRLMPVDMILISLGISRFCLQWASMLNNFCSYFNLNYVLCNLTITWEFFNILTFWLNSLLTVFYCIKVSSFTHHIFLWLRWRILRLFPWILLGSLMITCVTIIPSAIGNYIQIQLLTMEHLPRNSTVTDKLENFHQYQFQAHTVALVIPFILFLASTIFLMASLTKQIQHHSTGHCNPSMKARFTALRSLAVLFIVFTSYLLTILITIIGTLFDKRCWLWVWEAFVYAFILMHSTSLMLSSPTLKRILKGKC

Experiment [2] concerns the target T2, hTAS2R16 (ssr3-hTAS2R16) (Homo sapiens, UniProt Q9NYV7, F240Y).
T2 sequence (Q9NYV7 1-291 F240Y): T1 sequence (Q9NYV7 1-291 F240L) with L240Y

For experiment [3], the target named is T3, hTAS2R16 (ssr3-hTAS2R16) (Homo sapiens, UniProt Q9NYV7, F93L).
T3 sequence (Q9NYV7 1-291 F93L): T1 sequence (Q9NYV7 1-291 F240L) with F93L, L240F

Experiment [4] concerns the target T4, hTAS2R16 (ssr3-hTAS2R16) (Homo sapiens, UniProt Q9NYV7, I243L).
T4 sequence (Q9NYV7 1-291 I243L): T1 sequence (Q9NYV7 1-291 F240L) with L240F, I243L

Experiment [5] addresses T5, hTAS2R16 (ssr3-hTAS2R16) (Homo sapiens, UniProt Q9NYV7, W94F).
T5 sequence (Q9NYV7 1-291 W94F): T1 sequence (Q9NYV7 1-291 F240L) with W94F, L240F

Experiment [6] addresses T6, hTAS2R16 (ssr3-hTAS2R16) (Homo sapiens, UniProt Q9NYV7, F93Y).
T6 sequence (Q9NYV7 1-291 F93Y): T1 sequence (Q9NYV7 1-291 F240L) with F93Y, L240F

In experiment [7] the target is T7, hTAS2R16 (ssr3-hTAS2R16) (Homo sapiens, UniProt Q9NYV7).
T7 sequence (Q9NYV7 1-291): T1 sequence (Q9NYV7 1-291 F240L) with L240F

In experiment [8] the target is T8, hTAS2R16 (ssr3-hTAS2R16) (Homo sapiens, UniProt Q9NYV7, F240W).
T8 sequence (Q9NYV7 1-291 F240W): T1 sequence (Q9NYV7 1-291 F240L) with L240W

Structures are written as SMILES. Positions count from the first letter of the chain named. A value given as a limit tells only on which side of the number the result lay.

Take `OCc1ccccc1O[C@@H]1O[C@H](CO)[C@@H](O)[C@H](O)[C@H]1O` [salicin]: the EC50 at hTAS2R16 (ssr3-hTAS2R16) [1] is over 30 mM; at hTAS2R16 (ssr3-hTAS2R16) [2], 2.44 mM; on hTAS2R16 (ssr3-hTAS2R16) [3] it was 4.15 mM; at hTAS2R16 (ssr3-hTAS2R16) [4], 0.5 mM; at hTAS2R16 (ssr3-hTAS2R16) [5] it was 9.68 mM; on hTAS2R16 (ssr3-hTAS2R16) [6], 10 mM. Besides, the EC50 at hTAS2R16 (ssr3-hTAS2R16) [7] amounted to 0.22 mM; on hTAS2R16 (ssr3-hTAS2R16) [8], 2.05 mM.
